Measured values taken from the supplement of paper PMC7287046.

Assays:
Conditions in all cases: exposure time: 72 h
[1] = system: U87; assay: HSA synergy score (Combenefit); higher = more synergy
Outline: (§1)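 Glioma cell lines in 96-well plates received pairs of drugs 24 h after plating, with an untreated control repeated sixfold. Each drug's top dose was set at its own IC50. The doses ran in 6 × 6 matrices of twofold steps, and readings taken three days later were made at least in triplicate. Viability by CellTiter-Glo, as percent of DMSO controls, was normalised and scored for Loewe, Bliss and highest single agent synergy in Combenefit.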

[2] = system: T98G; assay: as above
Outline: as §1

[3] = system: SNB75; assay: as above
Outline: as §1

[4] = system: AM-38; assay: as above
Outline: as §1

[5] = system: SF268; assay: as above
Outline: as §1

[6] = system: SF539; assay: as above
Outline: as §1

[7] = system: U251; assay: as above
Outline: as §1

[8] = system: U118; assay: as above
Outline: as §1

[9] = system: KNS-42; assay: as above
Outline: as §1

[10] = system: U87; assay: Chou-Talalay combination index (dimensionless); higher = less synergy (more antagonism)
Outline: (§2)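 For combination testing, glioma cell lines were seeded at optimal density in 96-well plates, or in low-adhesion plates for primary cultures. Treatment began after 24 h with two drugs crossed in a 6 × 6 matrix of twofold dilutions, alongside an untreated control repeated sixfold, and CellTiter-Glo was read three days later at least in triplicate. Dilutions of each drug started from its single-drug IC50. Viability relative to DMSO controls, in percent, fed a median-effect calculation of the Chou–Talalay combination index.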

[11] = system: SNB75; assay: as above
Outline: as §2

[12] = system: KNS42; assay: as above
Outline: as §2

[13] = system: SF268; assay: as above
Outline: as §2

[14] = system: T98; assay: as above
Outline: as §2

[15] = system: SF539; assay: as above
Outline: as §2

[16] = system: U251; assay: as above
Outline: as §2

[17] = system: U118; assay: as above
Outline: as §2

[18] = system: AM38; assay: as above
Outline: as §2

[19] = system: U87; assay: Bliss synergy score (Combenefit); higher = more synergy; extreme values may be limits of the assay
Outline: as §1

[20] = system: T98G; assay: as above
Outline: as §1

[21] = system: SNB75; assay: as above
Outline: as §1

[22] = system: AM-38; assay: as above
Outline: as §1

[23] = system: SF268; assay: as above
Outline: as §1

[24] = system: SF539; assay: as above
Outline: as §1

[25] = system: U251; assay: as above
Outline: as §1

[26] = system: U118; assay: as above
Outline: as §1

[27] = system: KNS-42; assay: as above
Outline: as §1

[28] = system: U87; assay: Loewe synergy score (Combenefit); higher = more synergy; extreme values may be limits of the assay
Outline: as §1

[29] = system: T98G; assay: as above
Outline: as §1

[30] = system: SNB75; assay: as above
Outline: as §1

[31] = system: AM-38; assay: as above
Outline: as §1

[32] = system: SF268; assay: as above
Outline: as §1

[33] = system: SF539; assay: as above
Outline: as §1

[34] = system: U251; assay: as above
Outline: as §1

[35] = system: U118; assay: as above
Outline: as §1

[36] = system: KNS-42; assay: as above
Outline: as §1

[37] = system: U87
Method: (§3)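 Glioma cell lines and primary cultures were treated with single drugs in a nine-step threefold dilution series, about 72 h. Viability was read by CellTiter-Glo and normalised to untreated controls. Absolute IC50 was fitted in GraphPad Prism; values beyond the tested dose range are censored at the block's top or lowest dose.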

[38] = system: SNB75
Method: as §3

[39] = system: KNS42
Method: as §3

[40] = system: SF268
Method: as §3

[41] = system: T98
Method: as §3

[42] = system: CAS-1
Method: as §3

[43] = system: SF539
Method: as §3

[44] = system: U251
Method: as §3

[45] = system: U118
Method: as §3

[46] = system: AM38
Method: as §3

SMILES: CCC(=O)N1CCN(c2ccc(-n3c(=O)ccc4cnc5ccc(-c6cnc7ccccc7c6)cc5c43)cc2C(F)(F)F)CC1 [Torin1] + N#CC(c1ccnc(NCCc2cccnc2)n1)c1nc2ccccc2s1 [AS601245]
- HSA synergy score [1]: 0
- HSA synergy score [2]: 0.235
- HSA synergy score [3]: 0.213
- HSA synergy score [4]: 0
- HSA synergy score [5]: 3.85
- HSA synergy score [6]: 11.4
- HSA synergy score [7]: 2.53
- HSA synergy score [8]: 2.19
- HSA synergy score [9]: 1.23
- Chou-Talalay combination index [10]: 2.44
- Chou-Talalay combination index [11]: 1.11
- Chou-Talalay combination index [12]: 1.02
- Chou-Talalay combination index [13]: 0.963
- Chou-Talalay combination index [14]: 0.962
- Chou-Talalay combination index [15]: 0.864
- Chou-Talalay combination index [16]: 0.948
- Chou-Talalay combination index [17]: 1.07
- Chou-Talalay combination index [18]: 1.32
- Bliss synergy score [19]: 0
- Bliss synergy score [20]: 0
- Bliss synergy score [21]: 0
- Bliss synergy score [22]: 0
- Bliss synergy score [23]: 0.983
- Bliss synergy score [24]: 4.4
- Bliss synergy score [25]: 0.142
- Bliss synergy score [26]: 0
- Bliss synergy score [27]: 0
- Loewe synergy score [28]: 0
- Loewe synergy score [29]: 0.121
- Loewe synergy score [30]: 0
- Loewe synergy score [31]: 0
- Loewe synergy score [32]: 0.416
- Loewe synergy score [33]: 2.66
- Loewe synergy score [34]: 0.0482
- Loewe synergy score [35]: 2.14
- Loewe synergy score [36]: 0

SMILES: Nc1ccn([C@@H]2O[C@H](CO)[C@@H](O)C2(F)F)c(=O)n1 [Gemcitabine]
- IC50 (absolute, viability) [37]: 27.9 nM
- IC50 (absolute, viability) [38]: 148 nM
- IC50 (absolute, viability) [39]: 859 nM
- IC50 (absolute, viability) [40]: 210 nM
- IC50 (absolute, viability) [41]: 450 nM
- IC50 (absolute, viability) [42]: 206 nM
- IC50 (absolute, viability) [43]: 182 nM
- IC50 (absolute, viability) [44]: 149 nM
- IC50 (absolute, viability) [45]: 320 nM
- IC50 (absolute, viability) [46]: 145 nM

SMILES: C#Cc1cccc(Nc2ncnc3cc(OCCOC)c(OCCOC)cc23)c1 [Erlotinib]
- IC50 (absolute, viability) [37]: 11600 nM
- IC50 (absolute, viability) [38]: 15000 nM
- IC50 (absolute, viability) [39]: 27200 nM
- IC50 (absolute, viability) [40]: 38100 nM
- IC50 (absolute, viability) [41]: 27500 nM
- IC50 (absolute, viability) [42]: > 50000 nM
- IC50 (absolute, viability) [43]: 25000 nM
- IC50 (absolute, viability) [45]: 35500 nM
- IC50 (absolute, viability) [46]: 27800 nM
